“Also recorded” adds a separate entry of the source. Read-outs that look alike come from different tables or passages of the source. Numbered stars: 1 amine (or outer) side, 2 acyl side, 3 side chain; on linkers, the order of the positions; unused ones are H or OH. Bridge positions count the residues as written; N and C are the ends. Square brackets hold non-standard residues; d marks the D form. Peptide text beside a SMILES is read from it. I, II: the chains in the order shown. Actinocin(9to1) = Cc1c2oc3c(C)ccc(C(=O)[*:1])c3nc-2c(C(=O)[*:2])c(N)c1=O; NMeV = CN[C@H](C(=O)O)C(C)C; Sar = CNCC(=O)O
Experiments:
[1] = system: tumor cell lines or primary cultures of rat neuronal cells; conditions: continued exposure; cited from earlier work
MCF-7 cells [2] = assay: Detection of apoptosis by the TUNEL method; assay type: cell-based, human; conditions: 100 μM, 48 hours; for TUNEL assay result: FIG. 2
Description: (§1) Cells were seeded at 100,000 cells/well.
(§2) DNA fragmentation occurring during apoptosis can be detected by incorporating fluorescein-12-dUTP at the 3′-OH DNA ends using the enzyme, terminal deoxynucleotidyl transferase (TdT). TUNEL (TdT-mediated dUTP Nick-End Labeling) was performed using the Apoptosis Detection System, Fluorescein Kit (Promega, Madison, Wis.) according to the manufacturer's specification. After treatment with sigma ligands at the concentrations and times specified, cells were fixed with 4% formaldehyde, permeabilized with Triton X-100, and incubated with fluorescein-12-dUTP and terminal deoxynucleotidyl transferase and then with propidium iodide. Propidium iodide stains the DNA in both apoptotic and non-apoptotic cells with orange-red color. Fluorescein produces yellow-green fluorescence, indicating fragmented DNA within the nucleus of apoptotic cells. Filters used: excitation 450-490 nm, barrier 520 nm.

T47D cells [3] = assay type: cell-based, human
Description: as §1, §2

sigma-2 receptor = conditions: cited from earlier work; for sigma receptor subtype selectivity: sigma-2 vs sigma-1
SKBr3 cells = assay: Cytotoxicity assay, LDH release into culture medium; assay type: cell-based, human; conditions: various concentrations, FIG. 3A
Description: as §1

T47D cells [4] = assay: as above; assay type: cell-based, human; conditions: various concentrations, FIG. 3B
Description: as §1

breast tumor cell lines = assay: Cytotoxicity (LDH release) across breast tumor cell lines; assay type: cell-based, human; conditions: for effect of p53 status on cytotoxic potency: mutant p53 (MCF-7/Adr^−, SKBr3, T47D) vs wild-type p53 MCF-7, FIG. 4B; for relative cytotoxic potency: FIG. 3A, 3B, 4B
Description: as §1

MCF-7 cells [5] = assay: Detection of apoptosis by Annexin V binding; assay type: cell-based, human; conditions: drug 100 μM; Z-VAD-FMK or Y-VAD-CHO 50 μM; 48 hours; FIG. 5
Description: as §1
The early stages of apoptosis are characterized by translocation of phosphatidyl serine (PS) from the inner surface of the plasma membrane to the outer surface of the membrane. Externalized PS can then be detected using Annexin V, a protein with high affinity for PS. This was carried out using the ApoAlert Annexin V Apoptosis Kit (Clontech, Palo Alto, Calif.) according to the manufacturer's specifications. After incubation with sigma ligands at the concentrations and times specified, live cells (without fixing) were incubated with annexin V-FITC and propidium iodide, and were investigated using fluorescence microscopy. […] Filters used: excitation 450 nm, barrier 535 nm.

[6] = system: breast tumor cell lines possessing p53 mutations; conditions: Crawford et al., 1999; cited from earlier work
SKBr3 cell lines = assay type: cell-based, human
Description: as §1, §2

[7] = system: SK-N-SH neuroblastoma cells; conditions: cited from earlier work
MCF-7 cells [8] = system: MCF-7 cells
Description: (§3) Human breast tumor cell lines (MCF-7, T47D, SKBr3, and MCF-7/Adr^−) were cultured in DMEM containing 3.7 g/liter Na2HCO3, fetal bovine serum (10%), and insulin (10 mg/liter). For cytotoxicity assays, cells were transferred to DMEM+Ham's nutrient mixture F-12 (without phenol red), with 1.2 g/liter Na2HCO3. Cells were seeded at 100,000 cells/well. Human SK-N-SH neuroblastoma and DU-145 prostate carcinoma cells were cultured in DMEM, supplemented with fetal bovine serum (10%).
(§4) Cell death was assessed by release of lactate dehydrogenase (LDH) into the culture medium using the CytoTox 96 kit from Promega (Madison, Wis.). The method used was as specified by manufacturer with minor modifications. Cells were plated and cultured in 24-well plates for 1 to 2 days prior to the experiment. Cells were treated in the plates under the specified drug conditions. Following treatment, the medium was transferred to centrifuge tubes and centrifuged to remove cell debris. Supernatant (50 μl) was transferred to a 96-well plate, to which was added substrate mix in assay buffer, followed by stop solution after a 30 min incubation. Formation of formazan was monitored at 490 nm in a plate reader. Values are expressed relative to total lysis controls (Triton X-100 was used to determine value for 100% cell kill) and no drug-controls. Doxorubicin and caspase inhibitors (Z-VAD-FMK, Y-VAD-CHO, DEVD-CHO) were obtained from Calbiochem (San Diego, Calif.) and actinomycin-D from Sigma (St. Louis, Mo.).

MCF-7/Adr^− cells = assay: Cytotoxicity assay, LDH release into culture medium
Description: as §3, §4

[9] = up to 100 mg orally every four hours, 30 mg IV and 60 mg IM; cited from earlier work

Question: Which “cell morphological changes and cell death” value [1] does the source give for 12-methoxyibogamine [ibogaine] here?
Answer: activity

Question: For `O=C(CCCN1CCC(O)(c2ccc(Cl)cc2)CC1)c1ccc(F)cc1` [haloperidol], which “extent of apoptotic changes / apoptotic nuclei (TUNEL)” value (MCF-7 cells [2]) is on record?
Answer: less extensively than the more potent CB64D

Question: And the TUNEL assay result (MCF-7 cells [2])?
Answer: positive results

Question: What about the TUNEL assay result (T47D cells [3]; 100 μM, 48 hours, FIG. 2) of the same compound?
Answer: positive results

Question: And the “sigma receptor subtype selectivity” value (sigma-2 receptor)?
Answer: subtype non-selective

Question: And the “cell morphological changes and cell death” value [1]?
Answer: cell death

Question: Which results are given for `CN1CC[C@]2(c3cccc(O)c3)CC(=O)/C(=C/c3ccccc3)[C@H]1C2` [CB-64D, (+)-1R,5R-E-8-benzylidene-5-(3-hydroxyphenyl)-2-methylmorphan-7-one]?
Answer: cytotoxicity (LDH release, percentage of total cell kill) (SKBr3 cells): cytotoxic; cytotoxicity (LDH release, percentage of total cell kill) (T47D cells [4]): cytotoxic; potency relative to CB-184 (fold less potent) (breast tumor cell lines; intact cells): about 10 fold; effect of p53 status on cytotoxic potency (breast tumor cell lines): generally not affected by p53 status; also recorded: comparable; extent of apoptotic changes / apoptotic nuclei (TUNEL) (MCF-7 cells [2]): extensive apoptotic changes; TUNEL assay result (MCF-7 cells [2]): positive results; cells visualized displaying apoptotic nuclei (MCF-7 cells [2]; in some experiments): up to 100%; TUNEL assay result (T47D cells [3]; 100 μM, 48 hours, FIG. 2): positive results; effect of caspase inhibitors on drug-induced apoptosis (Annexin V binding) (MCF-7 cells [5]): unaffected by co-treatment with caspase inhibitors; sigma receptor subtype selectivity (sigma-2 receptor): sigma-2 subtype-selective; cell morphological changes and cell death [1]: activity; induction of apoptosis [6]: induce apoptosis

Question: Which “extent of apoptotic changes / apoptotic nuclei (TUNEL)” value (MCF-7 cells [2]) does the source give for `OC(CCCN1CCC(O)(c2ccc(Cl)cc2)CC1)c1ccc(F)cc1` (stereo not shown) [reduced haloperidol] here?
Answer: less extensively than the more potent CB64D

Question: What about the TUNEL assay result (MCF-7 cells [2]) of the same compound?
Answer: positive results

Question: And the TUNEL assay result (T47D cells [3])?
Answer: positive results

Question: What about the “sigma receptor subtype selectivity” value (sigma-2 receptor) of the same compound?
Answer: subtype non-selective

Question: And the “cell morphological changes and cell death” value [1]?
Answer: cell death

Question: Which induction of apoptosis (SKBr3 cell lines) does the source give for `Cc1c2oc3c(C)ccc(C(=O)N[C@@H]4C(=O)N[C@H](C(C)C)C(=O)N5CCC[C@H]5C(=O)N(C)CC(=O)N(C)[C@@H](C(C)C)C(=O)O[C@@H]4C)c3nc-2c(C(=O)N[C@@H]2C(=O)N[C@H](C(C)C)C(=O)N3CCC[C@H]3C(=O)N(C)CC(=O)N(C)[C@@H](C(C)C)C(=O)O[C@@H]2C)c(N)c1=O` [actinomycin D] (I: T[dV]P[Sar][NMeV] / II: T[dV]P[Sar][NMeV]; ester I:1-I:C, II:1-II:C; linker I:N-II:N via Actinocin(9to1)) here?
Answer: apoptosis was induced

Question: And the induction of apoptosis (T47D cells [3])?
Answer: apoptosis was induced

Question: What about the induction of apoptosis [6] of the same compound?
Answer: greatly attenuated

Question: Which sigma-2 affinity (sigma-2 receptor) does the source give for `CC(C)=CCN1CCC2(C)c3cc(O)ccc3CC1C2C` (single isomer, unassigned; (-)) [(−)-Pentazocine] here?
Answer: has sigma-2 affinity

Question: Which results are given for `CN1CCN(CCc2ccc(Cl)c(Cl)c2)CC1` [BD1063]?
Answer: antagonist activity in the calcium assay ([7]; pH 7.2): ineffective; antagonist activity in the calcium assay ([7]; pH 8.2): effectively attenuated agonist activity

Question: Which induction of apoptosis (SKBr3 cell lines) does the source give for `O=P1(N(CCCl)CCCl)NCCCO1` (stereo not shown) [cyclophosphamide] here?
Answer: apoptosis was induced

Question: What about the induction of apoptosis (T47D cells [3]) of the same compound?
Answer: apoptosis was induced

Question: What does the source list for `CN1CC[C@]2(c3cccc(O)c3)CC(=O)/C(=C/c3ccc(Cl)c(Cl)c3)[C@H]1C2` [CB-184, (+)-1R,5R-E-8-(3,4-dichlorobenzylidene)-5-(3-hydroxyphenyl)-2-methylmorphan-7-one]?
Answer: cytotoxicity of combination with doxorubicin (MCF-7 cells [8]; CB184 1 μM + doxorubicin 10 μM, 24 and 48 hours, FIG. 7A, 7B): Clear synergistic effects; effect of DEVD-CHO on cytotoxicity (LDH release) (MCF-7 cells [8]; DEVD-CHO 50 μM, caspase 3 inhibitor, FIG. 6A, 6B): no difference; effect of caspase inhibitors on drug-induced cytotoxicity (LDH release) (MCF-7 cells [8]; DEVD-CHO or Z-VAD-FMK 50 μM, FIG. 6A-6C): not that induced by CB-184; cytotoxicity of combination with actinomycin D (MCF-7/Adr^− cells; CB184 1 μM + actinomycin D 1 μg/ml at 24 hours or 0.1 μg/ml at 48 hours, FIG. 7C, 7D): potentiated; cytotoxicity of combination with doxorubicin (MCF-7/Adr^− cells; CB184 1 μM + doxorubicin 10 μM): less pronounced; cytotoxicity (LDH release, percentage of total cell kill) (SKBr3 cells): cytotoxic; cytotoxicity (LDH release, percentage of total cell kill) (T47D cells [4]): cytotoxic; concentration below which toxicity is generally not seen in the LDH assay (breast tumor cell lines; 24 hrs): below 1 μM; relative cytotoxic potency (breast tumor cell lines; intact cells): more potent than CB-64D; also recorded: most potent sigma-2 selective agent in intact cells; relative cytotoxic potency (breast tumor cell lines; intact cells, listed as CB184): greatest potency in all cell lines tested; LDH release compared to controls (breast tumor cell lines; below 1 μM, 48 hrs): mildly increased LDH release; effect of p53 status on cytotoxic potency (breast tumor cell lines): generally not affected by p53 status; also recorded: comparable; sigma receptor subtype selectivity (sigma-2 receptor): sigma-2 subtype-selective

Question: For `CN(C)CCN(C)CCc1ccc(Cl)c(Cl)c1` [BD1047], which “antagonist activity in the calcium assay” value ([7]; pH 7.2) is on record?
Answer: ineffective

Question: And the “antagonist activity in the calcium assay” value ([7]; pH 8.2)?
Answer: effectively attenuated agonist activity

Question: Which results are given for `CC(C)=CCN1CCC2(C)c3cc(O)ccc3CC1C2C` (racemic) [pentazocine]?
Answer: potentiation of doxorubicin-induced cytotoxicity (MCF-7 cells [8]; combined with doxorubicin in MCF-7 cells): Little or no potentiation; potentiation of doxorubicin-induced cytotoxicity (MCF-7/Adr^− cells; haloperidol 25 μM or pentazocine 35 μM with various concentrations of doxorubicin, FIG. 8): potentiated the cytotoxicity of doxorubicin; also recorded: potentiated the higher doses of doxorubicin; peak plasma concentrations [9]: about 160 ng/ml

Question: What does the source list for `CC(C)=CCN1CCC2(C)c3cc(O)ccc3CC1C2C` (single isomer, unassigned; (+)) [(+)-pentazocine]?
Answer: sigma-2 affinity (sigma-2 receptor): binds very weakly; cell morphological changes and cell death [1]: lack of activity

Question: For `COc1cccc2c1C(=O)c1c(O)c3c(c(O)c1C2=O)C[C@@](O)(C(=O)CO)C[C@@H]3O[C@H]1C[C@H](N)[C@H](O)[C@H](C)O1` [doxorubicin], which LDH release (MCF-7 cells [8]; various concentrations, FIG. 6C) is on record?
Answer: dose-dependent increase in LDH-release

Question: And the TUNEL assay result (MCF-7 cells [2])?
Answer: positive results

Question: What about the induction of apoptosis (SKBr3 cell lines) of the same compound?
Answer: apoptosis was induced

Question: And the induction of apoptosis (T47D cells [3])?
Answer: apoptosis was induced

Question: And the TUNEL assay result (T47D cells [3]; 100 μM, 48 hours, FIG. 2)?
Answer: positive results

Question: What about the “effect of caspase inhibitors on drug-induced apoptosis (Annexin V binding)” value (MCF-7 cells [5]) of the same compound?
Answer: blocked apoptosis induced by doxorubicin

Question: What about the induction of apoptosis [6] of the same compound?
Answer: greatly attenuated
